In patent US20160075682A1, “INHIBITORS OF NICOTINAMIDE PHOSPHORIBOSYLTRANSFERASE, COMPOSITIONS, PRODUCTS AND USES THEREOF” (UNIVERSITÀ DEGLI STUDI DEL PIEMONTE ORIENTALE "AMEDEO …, priority 2013, published 2016):

Columns and labels:
[1] = Microsomal stability with human liver microsomes; format: in vitro ADME; settings: 50 μM substrate, 1.0 mg/mL protein, 60 minutes at 37° C., pH 7.4
Method: (§1) Male Wistar rat liver microsomes (RLM), (protein concentration: 25 mg/ml determined using the Omura and Sato method, total P450: 0.64 nmol/mg protein) were used throughout this study and prepared using an internal protocol. The cryopreserved pooled human liver microsomes (HLM), (pooled mixed sex, ten individual donors, protein concentration: 20 mg/ml, total P450: 0.36 nmol/mg) were purchased from BD Gentest™ (Woburn, Mass.) and used throughout this study.
(§2) The standard incubation mixture (1 ml final volume), was carried out in a 50 mM TRIS (Tris[hydroxymethyl]aminomethane) buffer (pH 7.4) containing 10 μl of acetonitrile (1% of total volume), and 50 μM substrate compounds. After pre-equilibration of the mixture, an appropriate volume of RLM or HLM suspension was added to give a final protein concentration of 1.0 mg/mL. The mixture was shaken for 60 minutes at 37° C. Control incubations were carried out without microsomes. Each incubation was stopped by addition of 1 ml ice-cold acetonitrile, vortexed and centrifuged at 11,000 r.p.m. for 5 min. The supernatants were analysed by LC-DAD-UV and LC-ESI-MS systems to determine the metabolic stability (% substrate residue) and the structure of metabolites respectively (Table 1).
(§3) A Shimadzu HPLC system (Shimadzu, Kyoto, Japan), consisting of two LC-10AD Vp module pumps, an SLC-10A Vp system controller, an SIL-10AD Vp autosampler, and a DGU-14-A on-line degasser were used for the analysis. Chromatographic separation was performed on a Phenomenex Luna C18(2) 150×4.6 mm (5 μm) (Phenomenex srl, Castel Bolognese, Italy) as a stationary phase protected by a C18 SecurityGuard (Phenomenex srl, Castel Bolognese, Italy). The SPD-M10Avp photodiode array detector was used to detect the analytes. LC-Solution 1.24 software was used to process the chromatograms. Aliquots (20 μL) of supernatants obtained from incubations were injected onto the HPLC system and eluted with a mobile phase (flow rate 1.0 mL/min) consisting of a A: 0.5% formic acid solution, B: acetonitrile/methanol 8:2. A Thermo Finningan LCQ Deca XP plus system equipped with a quaternary pump, a Surveyor AS autosampler, a Surveyor photodiode array detector and a vacuum degasser was used for LC/MS analyses (Thermo Electron Corporation, Waltham, Mass.). All the chromatographic separations were performed on a Phenomenex Luna C18(2)150×2 mm (4 μm) (kept at a 35° C.) as a stationary phase protected by a C18 SecurityGuard (Phenomenex srl, Castel Bolognese, Italy). Aliquots (2.0 μl) of supernatants obtained from incubations were injected onto the system and eluted with a mobile phase (flow rate 0.2 ml/min) consisting of a A: 0.2% formic acid solution, B: acetonitrile/methanol 8:2. The eluate was injected into the electrospray ion source (ESI) and MS and MS^n spectra were acquired and processed using Xcalibur® software. The operating conditions on the ion trap mass spectrometer were as follows: Positive mode, spray voltage, 5.30 kV; source current, 80 μA; capillary temperature, 350° C.; capillary voltage, 21.00 V; tube lens offset, 15.00 V; multipole 1 offset, −5.75 V; multipole 2 offset, −9.00 V; sheath gas flow (N2), 55 Auxiliary Units.

[2] = Microsomal stability with rat liver microsomes; format: in vitro ADME, Male Wistar rat; settings: 50 μM substrate, 1.0 mg/mL protein, 60 minutes at 37° C., pH 7.4
Method: as §1, §2, §3

[3] = Metabolites generated from hydrolyses in RLM or HLM incubations (LC-ESI-MS); format: in vitro ADME, rat, human; settings: RLM or HLM incubation, 60 minutes at 37° C.
Method: as §1, §2, §3

SH-SY5Y, HeLa = experiment: MTT cell proliferation assay and trypan blue count (cell viability); format: cell-based; settings: cells treated for 48 and 72 hours; read-out: IC50 values (inhibition of cellular proliferation, MTT assay and trypan blue assay)
Method: Cell based assays were used to evaluate the possible cytotoxic effects of some compounds. To measure cytotoxic effects two different methods were used, a MTT cell proliferation assay and trypan blue count.
The Trypan blue assay is used to determine the number of viable cells present in a cell suspension. […] Briefly, 8×10^5 cells (SH-SY5Y, HeLa; obtained from ATCC, LGC standards, Sesto San Giovanni) were seeded in 24-well plates and treated for 48 and 72 hours. After the treatments, cells were stained with trypan blue and counted.
To analyze cell viability was used the colorimetric 3-(4,5-dimethylthiazol-2-yl)-2,5-diphenyltetrazolium bromide (MTT) method. The assay is based on the cleavage of the yellow tetrazolium salt MTT to purple formazan crystals by metabolic active cells. Since reduction of MTT can only occur in metabolically active cells, the level of activity is a measure of the viability of cells and conversely the cytotoxic effects of various treatments. Briefly, 8×10^5 cells (SH-SY5Y, code number CRL-2266; and HeLa, code number CCL-2) were seeded in 24-well plates and treated for 48 and 72 hours. Compounds were dissolved in DMSO and were added to the cells to give a final DMSO concentration no greater than 0.5%. Cells were washed once in Locke buffer and 300 μl of MTT (250 μg/ml in Locke buffer) were added before returning the cells to the incubator for 1 h to allow the formation of the purple formazan crystals. After 1 h, 600 μl of isopropanol/0.1 M HCl were added to each well, and the absorbance was read at 570 nm in a plate reader (Victor3V, PerkinElmer Life Sciences). For some compounds a dose response curve and IC50 for the effects on cell viability and proliferation were calculated. Cell lines used were originally purchased from ATCC (LGC standards. Sesto San Giovanni).
To evaluate the ability of each compound to inhibit cellular proliferation, cells were seeded in 24-well plates and treated for 48 and 72 hours. After the treatments the MTT assay and trypan blue assay were performed.

NAMPT = molecular target: T1, NAMPT (Homo sapiens, UniProt P43490); experiment: Direct inhibition of NAMPT enzymatic activity (Cyclex NAMPT colorimetric Assay Kit); format: biochemical; settings: as assessed with a cycling assay
T1 construct: endogenous in cells; host or cells: SH-SY5Y and HeLa
T1 sequence (P43490 whole entry): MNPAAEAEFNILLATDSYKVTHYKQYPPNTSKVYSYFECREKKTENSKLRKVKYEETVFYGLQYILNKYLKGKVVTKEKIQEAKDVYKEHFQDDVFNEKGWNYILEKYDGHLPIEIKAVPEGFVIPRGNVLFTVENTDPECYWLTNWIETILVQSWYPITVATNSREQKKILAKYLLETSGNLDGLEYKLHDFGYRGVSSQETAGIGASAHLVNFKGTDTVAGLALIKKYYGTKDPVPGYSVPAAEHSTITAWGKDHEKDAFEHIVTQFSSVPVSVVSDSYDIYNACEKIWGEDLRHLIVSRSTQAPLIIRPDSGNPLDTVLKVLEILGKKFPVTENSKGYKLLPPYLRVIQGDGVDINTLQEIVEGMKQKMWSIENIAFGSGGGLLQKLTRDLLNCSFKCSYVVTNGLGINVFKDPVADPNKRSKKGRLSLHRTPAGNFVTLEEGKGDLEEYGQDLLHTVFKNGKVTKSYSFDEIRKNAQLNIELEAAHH
Method: Determination of the direct activity of compounds on NAMPT was performed using a commercial kit, Cyclex NAMPT colorimetric Assay Kit.

HLM stability % substrate residue (area peak) [1] [%] | RLM stability % substrate residue (area peak) [2] [%] | Metabolites generated from hydrolyses [3] | IC50 (SH-SY5Y, HeLa) [nM] | inhibition of the enzymatic activity of NAMPT (NAMPT) | melting point [°C] | SMILES
>98 | >99 | no | < 300 |  |  | O=C(Nc1ccc(CCCn2cc(-c3cccnc3)nn2)cc1)c1ccccc1-c1ccccc1 [N-(4-(3-(4-(pyridin-3-yl)-1H-1,2,3-triazol-1-yl)propyl)phenyl)-[1,1′-biphenyl]-2-carboxamide]
>99 | >97 | no | < 300 |  |  | c1ccc(-c2ccccc2OCCc2ccc(Cn3cc(-c4cccnc4)nn3)cc2)cc1 [3-(1-(4-(2-([1,1′-biphenyl]-2-yloxy)ethyl)benzyl)-1H-1,2,3-triazol-4-yl)pyridine]
>99 | >95 | no | < 300 | able to inhibit |  | c1cncc(-c2cn(CCCCCCOc3ccccc3-c3cccnc3)nn2)c1 [3-(2-((6-(4-(pyridin-3-yl)-1H-1,2,3-triazol-1-yl)hexyl)oxy)phenyl)pyridine]
>99 | >99 | no | < 300 |  |  | O=C(NCCc1ccc(Cn2cc(-c3cccnc3)nn2)cc1)c1ccccc1-c1ccccc1 [N-(4-((4-(pyridin-3-yl)-1H-1,2,3-triazol-1-yl)methyl)phenethyl)[1,1′-biphenyl]-2-carboxamide]
>99 | >99 | no | < 300 |  |  | c1ccc(-c2ccccc2-c2cn(CCCCCCCn3cc(-c4cccnc4)nn3)nn2)cc1 [3-(1-(7-(4-([1,1′-byphenyl]-2-yl)-1H-1,2,3-triazol-1-yl)heptyl)-1H-1,2,3-triazol-4-yl)pyridine]
>96 | >99 | no | < 300 | able to inhibit |  | O=C(NCCCCCCCn1cc(-c2cccnc2)nn1)c1ccccc1-c1cccnc1 [2-(pyridin-3-yl)-N-(7-(4-(pyridin-3-yl)-1H-1,2,3-triazol-1-yl)heptyl)benzamide]
>98 | >95 | yes (traces) | < 300 | able to inhibit |  | O=C(NCCCCCCCn1cc(-c2cccnc2)nn1)Nc1ccccc1-c1ccccc1 [1-([1,1′-biphenyl]-2-yl)-3-(7-(4-(pyridin-3-yl)-1H-1,2,3-triazol-1-yl)heptyl)urea]
>98 | >92 | no | < 300 |  | 164 to 165 | c1ccc(-c2ccccc2OCCCc2ccc(-n3cc(-c4cccnc4)nn3)cc2)cc1 [3-(1-(4-(3-([1,1′-biphenyl]-2-yloxy)propyl)phenyl)-1H-1,2,3-triazol-4-yl)pyridine]
 |  |  | < 300 | able to inhibit |  | O=C(Nc1ccccc1-c1ccccc1)OCCCCCCn1cc(-c2cccnc2)nn1 [6-(4-(pyridin-3-yl)-1H-1,2,3-triazol-1-yl)hexyl[1,1′-biphenyl]-2-ylcarbamate]
>99 | >99 | no | < 300 |  |  | O=S(=O)(NCCCCCCCCn1cc(-c2cccnc2)nn1)c1ccccc1-c1ccccc1 [N-(8-(4-(pyridin-3-yl)-1H-1,2,3-triazol-1-yl)octyl) biphenyl-2-sulfonamide]
>99 | >99 | no | < 300 |  |  | O=C(NCCc1ccc(Cn2cc(-c3cccnc3)nn2)cc1)Nc1ccccc1-c1ccccc1 [1-([1,1′-biphenyl]2-yl)-3-(4-((4-(pyridin-3-yl)-1H-1,2,3-triazol-1-yl)methyl)phenethyl)urea]
 |  |  | < 300 | able to inhibit |  | O=C(NCCCCCCn1cc(-c2cccnc2)nn1)c1ccccc1-c1ccccc1 [N-(6-(4-(pyridin-3-yl)-1H-1,2,3-triazol-1-yl)hexyl)-[1,1′-biphenyl]-2-carboxamide]
 |  |  | < 300 | able to inhibit |  | c1ccc(-c2ccccc2OCCCCCCCn2cc(-c3cccnc3)nn2)cc1 [3-(1-(7-([1,1′-biphenyl]-2-yloxy)heptyl)-1H-1,2,3-triazol-4-yl)pyridine]
 |  |  | < 300 | able to inhibit |  | O=C(NCCCCCCn1cc(-c2cccnc2)nn1)Nc1ccccc1-c1ccccc1 [1-([1,1′-biphenyl]-2-yl)-3-(6-(4-(pyridin-3-yl)-1H-1,2,3-triazol-1-yl)hexyl)urea]
